In patent US6159696A, “Isolated human BMP-4 promoter region” (priority 1996, dated 2000):
Entries after “also recorded” stand apart in the source; their conditions may differ. One block for each molecule: values may come before it.

Tests used:
[1] = system: pSLA4 luciferase reporter plasmid; assay: ER-mediated luciferase reporter gene modulation, pSLA4 reporter without BMP-4 promoter region, transient transfection of U-2 OS cells with pKCRE-ER; format: cell-based, human
Description: (§1) Additional fragments of promoter region 1 were generated by progressive exonuclease III digestion (Erase-a-base Kit, Promega), blunt-ended with klenow and deoxynucleotide-triphosphates and subcloned into an endoR SmaI-digested pSLA4 luciferase reporter plasmid.
(§2) The human estrogen receptor (ER)-containing mammalian expression construct pKCRE-ER was constructed in the following way. […] The ER-cDNA was isolated as an endoR SphI/EcoRI fragment comprising nucleotide positions -30 to +1800.
(§3) ER-mediated reporter gene modulation by different estrogen analogs of individual promoter region constructs were assayed by transient transfection of osteosarcoma cells (U-2 OS). One day prior to transfection, U-2 OS cells were seeded at a density of 10^5 cells per well (6-well tissue culture plates; Nunc). In this case, the cells were seeded in fenolred-free medium containing 10% (v/v) charcoal-stripped Fetal Calf Serum (csFCS) instead of FCS. DNA was introduced using the lipofection method as described by the supplier (Gibco, BRL). Hereto, the DNA (1 μg receptor construct, 1 μg reporter construct and 250 ng transfection control construct in 250 μL Optimem, Gibco BRL; in different experiments the total amount of transfected DNA was kept constant using pKCRE) was mixed with an equal volume of Lipofectin Reagent (Gibco, BRL) and allowed to stand for 30 min at room temperature. […]

[2] = system: estrogen response element (ERE)-containing promoter; assay: ER-mediated luciferase reporter gene modulation, estrogen response element promoter construct pERE3 TATA-Luc, transient transfection of U-2 OS cells with pKCRE-ER; format: cell-based, human; conditions: for expression of the reporter gene under the control of a promoter comprising an estrogen responsive element (ERE) (in words): ERE promoter reporter plus ER expression vector
Description: The estrogen response element (ERE)-containing promoter construct was based on pBL-CAT6 (Boshart et al., Gene 110, 129, 1992). It was modified into a luciferase (Luc) reporter construct by exchanging the endoR XhoI/StyI fragment of pBL CAT6 (containing the chloramphenicol acetyl transferase coding information) by the endoR XhoI/StyI fragment of pXP2 (containing the luciferase coding information; Nordeen et al., Biotechniques 6, 454, 1988). A minimal promoter/TATA-element with the sequence 5'-GGGTATATAAT-3'(SEQ ID NO:8) was inserted in between the endoR XbaI and endoR BamHI sites resulting in plasmid pTATA-Luc. A triple estrogen response element (ERE) with the core sequence
was inserted in the endoR HindIII site resulting in plasmid pERE3 TATA-Luc.
The human estrogen receptor (ER)-containing mammalian expression construct pKCRE-ER was constructed in the following way. The human ER-cDNA was obtained from G. Greene (Ben May Laboratory for Cancer Research, University of Chicago); it encodes a glycine instead of valine at amino acid position 400 (G. Greene et al., Science 231, 1150, 1986 and Tora et al., EMBO. J, 8, 1981, 1989). The ER-cDNA was isolated as an endoR SphI/EcoRI fragment comprising nucleotide positions -30 to +1800. This fragment was blunted by T4-DNA polymerase and inserted in the blunted endoR BamHI site of the mammalian expression construct pKCR (O'Hara et al., Proc.Natl.Acad.Sci.USA, 78, 1527, 1981). The latter plasmid was modified in that the last exon region of the rabbit β-globin gene was removed by digestion with endoR EcoRI/BgIII, filling in, and religation (nucleotide position 1122-1196; Van Ooyen et al., Science 206, 337, 1979) and the replacement of pBR322 for pBR327 sequences.
as §3, with “temperature. To this was added 500 μL of Optimem (RT) and this mixture was added to the cells, after the latter have been washed with serum-free medium.” for “temperature.”

[3] = system: BMP-4 promoter 2 region; assay: ER-mediated luciferase reporter gene modulation, BMP-4 promoter 2 region constructs, transient transfection of U-2 OS cells with pKCRE-ER; format: cell-based; conditions: human ER (FIG. 8, FIG. 9)
Description: as §1, §2, §3

[4] = system: BMP-4 promoter 1 region; assay: ER-mediated luciferase reporter gene modulation, BMP-4 promoter 1 region constructs, transient transfection of U-2 OS cells with pKCRE-ER; format: cell-based, human; conditions: for ER-mediated expression of the reporter gene under control of BMP-4 promoter region (in words): BMP-4 promoter region reporter plus ER expression vector; for Fold Induction: ratio of luciferase activity in presence and absence of compound, U-2 OS, human ER
Description: as §1, §2
ER-mediated reporter gene modulation by different estrogen analogs of individual promoter region constructs were assayed by transient transfection of osteosarcoma cells (U-2 OS). One day prior to transfection, U-2 OS cells were seeded at a density of 10^5 cells per well (6-well tissue culture plates; Nunc). In this case, the cells were seeded in fenolred-free medium containing 10% (v/v) charcoal-stripped Fetal Calf Serum (csFCS) instead of FCS. DNA was introduced using the lipofection method as described by the supplier (Gibco, BRL). Hereto, the DNA (1 μg receptor construct, 1 μg reporter construct and 250 ng transfection control construct in 250 μL Optimem, Gibco BRL; in different experiments the total amount of transfected DNA was kept constant using pKCRE) was mixed with an equal volume of Lipofectin Reagent (Gibco, BRL) and allowed to stand for 30 min at room temperature. To this was added 500 μL of Optimem (RT) and this mixture was added to the cells, after the latter have been washed with serum-free medium. After a 5 h incubation period at 37° C., the cells were washed with fenolred-free and serum-free medium and incubated overnight in fenolred-free and 10% csFCS medium containing the testcompounds at the concentrations indicated. Prior to the preparation of lysates, cells were washed with PBS (7.6 mM Na2 HPO4 /NAH2 PO4 pH 7.4 and 0.12 M NaCl). Cell extracts were prepared by the addition of 200 μL lysis buffer (0.1 M sodium phosphate buffer pH 7.8 and 0.2% Triton X-100) to the cells and allowed to stand for 5 min at room temperature. Luciferase measurements of cell extracts was performed as described by the supplier (Promega; Luciferase assay system E1501). Hereto, 30 μL of cell extract was added to a […] Optiplate (Packard) and combined with 50 μL of luciferase substrate. The plates were sealed with Topseal film (Packard) and measurements were performed in a Topcount (Packard).

[5] = promoter region not further specified

Fold Induction ([1]; construct pSLA4 (no BMP-4 promoter region), ratio of luciferase activity in presence and absence of compound, U-2 OS, human ER): 1.1 ± 0.2 fold
Fold Induction ([2]; construct pERE3 TATA-Luc, ratio of luciferase activity in presence and absence of compound, U-2 OS, human ER): 0.7 ± 0.3 fold
Fold Induction ([4]; construct pSLA4.IN+16): 3.8 ± 0.6 fold
Fold Induction ([4]; construct pSLA4.IN+33): 3.1 ± 0.3 fold
Fold Induction ([4]; construct pSLA4.IN-42): 1.1 ± 0.2 fold
Fold Induction ([4]; construct pSLA4.INX): 3.4 ± 0.5 fold
Fold Induction ([4]; construct pSLA4.1EX (-1166/+173)): 3.7 ± 0.7 fold
Fold Induction ([4]; construct pSLA4.1PX (-697/+173)): 3.3 ± 0.5 fold
Structure (SMILES): O=C(c1ccc(OCCN2CCCCC2)cc1)c1c(-c2ccc(O)cc2)sc2cc(O)ccc12 [Raloxifene, raloxifene]
expression of the reporter gene under the control of a promoter comprising an estrogen responsive element (ERE) (in words) [2]: neither of these compounds were able to induce expression of the reporter gene
ER-mediated effect on BMP-4 promoter 2 region reporter (in words) [3]: also apparent
ER-mediated expression of the reporter gene under control of BMP-4 promoter region (in words) [4, 5]: could be induced and/or stimulated; also recorded: induced expression of the reporter gene

Structure (SMILES): CC/C(=C(\c1ccccc1)c1ccc(OCCN(C)C)cc1)c1ccccc1 [tamoxifen]
expression of the reporter gene under the control of a promoter comprising an estrogen responsive element (ERE) (in words) [2]: neither of these compounds were able to induce expression of the reporter gene
ER-mediated expression of the reporter gene under control of BMP-4 promoter region (in words) [4, 5]: could be induced and/or stimulated; also recorded: induced expression of the reporter gene

Structure (SMILES): CCCCN(C)C(=O)CCCCCCCCCC[C@@H]1Cc2cc(O)ccc2[C@H]2CC[C@]3(C)[C@@H](O)CC[C@H]3[C@H]12 [ICI 164384]
ER-mediated expression of the reporter gene under control of BMP-4 promoter region (in words) [4, 5]: considerable expression of the reporter gene; also recorded: can also be achieved

Structure (SMILES): CC/C(=C(\c1ccc(O)cc1)c1ccc(OCCN(C)C)cc1)c1ccccc1 [4OH-tamoxifen]
ER-mediated expression of the reporter gene under control of BMP-4 promoter region (in words) [4, 5]: can also be achieved

Fold Induction ([1]; u-2 os cells): 0.7 ± 0.1 fold
Fold Induction ([2]; u-2 os cells): 26 ± 7 fold
Structure (SMILES): C[C@]12CC[C@@H]3c4ccc(O)cc4CC[C@H]3[C@@H]1CC[C@@H]2O [Estradiol, 17β-estradiol]
ER-mediated expression of the reporter gene under control of BMP-4 promoter region (in words) ([4]; promoter region not further specified in the sentence, listed as 17-β-estradiol): did not show a significant transcriptional effect
ER-mediated expression of the reporter gene under control of BMP-4 promoter region (in words) ([4]; promoter region not further specified in the sentence, listed as 17β-estradiol): did not induce the expression of the reporter gene
